In data set [1] the target is brain NOS (cerebellar NOS) (Rattus norvegicus, UniProt P29476). Briefly: inhibition of NOS activity, conversion of [^3 H]arginine to [^3 H]citrulline, cerebellar homogenates/supernatants in vitro. As to conditions: for inhibition of brain NOS, in words: guanidinoalkanoic acid series. The text has this:
(§1) Inhibitors of NOS are compounds which compete for the substrate binding site of NOS or other sites on the enzyme, and include both reversible and irreversible inhibitors. The present invention contemplates the use of any physiologically acceptable inhibitor which inhibits NOS activity. The effectiveness of a compound, and its relative potency as an NOS inhibitor, can be tested and routinely determined by measuring inhibition of NOS activity by monitoring the conversion of arginine to citrulline by NOS in, for example, cerebellar homogenates. A reduction in citrulline formation indicates inhibitory activity of the compound. The percent reduction in citrulline formation, compared to the amount of citrulline formed in the absence of the compound being tested, indicates the potency of the compound as an NOS inhibitor.
Rat cerebella were homogenized in 10 vols. (w/v) […] Tris (pH 7.4), 2 mM EDTA. Homogenates were centrifuged at 10,000×g for 15 minutes at 4° C. Supernatant preparations were used in the enzyme assays. Cerebellar tissue was dialyzed (Spectra/Por, 10,000 MWCO, EDTA-treated cellulose dialysis tubing) against 20 mM Tris (pH 7.4), 2 mM EDTA (300 ml×2) for 24 hours at 4° C.
Cerebellar homogenates were incubated with arginine derivatives for one hour at 4° C., and dialyzed overnight. Aliquots (25 μg protein) were assayed for NOS activity before and after dialysis.
(§2) NOS activity was measured by monitoring the conversion of [^3 H]arginine to [^3 H]citrulline as described by Bredt and Snyder (Proc. Natl. Acad. Sci USA (1990) 87682-685). Briefly, enzyme assays contained 25 μl of soluble tissue, 50 μl of […] [^3 H]arginine and 1 mM NADPH, and 25 μl of 3 mM CaCl2. After a 15 minute incubation at room temperature, the assays were terminated with 3 ml of 20 mM Hepes (pH 5.5) with 2 mM EDTA, and were applied to 0.5 ml columns of Dowex AG50WX8 (Na^+ form). [^3 H]citrulline was quantified by liquid scintillation spectroscopy of the 3 ml flow-through.
(§3) Accordingly, the effects of 2, 4 and 24 hours of preincubations of cerebellar supernatants (FIG. 2A) and activated macrophage homogenates (FIG. 2B) with NO2 Arg were examined. The preincubation was conducted at 4° C. since NOS is unstable at higher temperature for long periods of time. Enzymatic incubation was conducted for only 5 minutes to minimize any reaction of the inhibitor with the enzyme in the course of the incubation procedure.
Cerebellar supernatants were made as described in Example 1.

Data set [2] relates to brain or macrophage enzyme (NOS). Briefly: NOS inhibition and brain/macrophage selectivity of arginine, nitroarginine and guanidinoalkanoic acid analogs. It counts as biochemical.
Data set [3] has as its system macrophage NOS (activated macrophage homogenates). Briefly: inhibition of NOS activity in activated macrophage homogenates in vitro. As to conditions: guanidinoalkanoic acid series. It counts as biochemical.
Text: as §1, §2, §3
Macrophages were activated as described by Tayeh and Marletta (J. Biol. Chem. (1989) 264:19654-19658) with 3.5 ng/ml LPS from E. coli and 5 units/ml recombinant murine γ-interferon for 24 hours at 37° C. Cells were homogenized in 20 mM Hepes (pH 7.4).

For another data set, the system named is NOS. As to conditions: cited from earlier work.
Data set [4] has as its system cortical cell cultures. Briefly: cells. It is filed as cell-based, rat. To be noted: for reversal of NO2 Arg protection from NMDA cytotoxicity: L-Arg 1 mM with 100 μM NO2 Arg, homoarginine, D-Arg, FIG. 7; for EC50: cortical cultures; for effect on NMDA-induced cell death: 300 μM NMDA (with 10 μM glycine), Hb at 500 μM; for effect on SNP-induced cell death: Hb 500 μM. The method, then: Primary dissociated cell cultures were prepared from fetal rats (13-to 14-day gestation for cortex and caudate-putamen cultures and 19- to 20-day gestation for hippocampal cultures). The tissue of interest was dissected, incubated for 15 minutes in 0.027% trypsin in Brooks-Logan solution (5% phosphate-buffered saline/0.04M sucrose/10 mM Hepes/0.03M glucose, pH 7.4), and then transferred to modified Eagle's medium (MEM) 10% horse serum/10% fetal bovine serum/2 mM glutamine for trituration. Dissociated cells were plated at a density of 3-4×10^5 cells per well in polyornithine-coated 15-mm multiwell plates. After 4 days the cells were treated with 10 μg of 5-fluoro-2'-deoxyuridine to prevent proliferations of noneuronal cells. Cells were maintained in MEM/5% horse serum/2 mM glutamine in 8% CO2 /humidified atmosphere at 37° C. The medium was changed twice weekly. Mature neurons (3-4 weeks) were used.
Cells were exposed to excitatory amino acids according to the method of Koh and Choi (J. Neurosci. (1988) 8:2153-2163). Before exposure, the cells were washed three times with Tris-buffered control salt solution (CSS), containing 120 mM NaCl/5.4 mM KCl/1.8 mM CaCl2 /25 mM Tris hydrochloride, pH 7.4 at room temperature/15 mM glucose. Brief exposures to glutamate, NMDA (plus 10 μM glycine), quisqualate, and sodium nitroprusside (SNP) were performed for 5 minutes in CSS. The exposure solution was then washed away and replaced by MEM with 21 mM glucose; then the cells were placed in an incubator for 20-24 hour. Long exposures to kainate were performed in MEM/21 mM glucose for 20-24 hour in the incubator. After exposure to the excitatory amino acids, the medium was replaced by CSS/0.4% trypan blue, which stains nonviable cells. Two to four photographs (10-20×) were made of each well, and viable versus nonviable cells were counted. The cytotoxicity data represent 6-24 separate wells assayed per data point, with ≈500-1500 cells counted per well. Neuronal cell injury was also assessed by measuring the release of lactate dehydrogenase by damaged or destroyed cells into the extracellular fluid following drug exposure.
Before initiating cytotoxicity experiments with NOS inhibitors, the potency of NMDA applied for 5 minutes in inducing cell death was evaluated by examining exclusion of 0.4% trypan blue by viable cells or measuring lactate dehydrogenase released by damaged or destroyed cells into the extracellular fluid.
To examine the role of NO in other forms of glutamate neurotoxicity, the effects of NO2 Arg cytotoxicity induced by quisqualate, kainate, and NMDA were compared. […] Data are means ±SEM (n=6-24). Cell death was determined by 0.4% trypan blue exclusion by viable cells.

In the next data set the test system is cGMP formation. Briefly: cGMP formation in cortical cell cultures (RIA). It is filed as cell-based, rat. To be noted: for effect on NMDA stimulation of cGMP formation: 300 μM NMDA (plus 10 μM glycine), 1 minute, 100 μM NO2 Arg, 1 mM L-Arg, 100 units of SOD, 500 μM Hb.
The test system of data set [5] is cortical cell cultures. To be noted: Koh et al. (1990); cited from earlier work.

“Also recorded” adds a separate entry of the source. Where two headings read alike, the source gives them in different places.

brain NOS (cerebellar NOS), sequence (P29476 whole entry): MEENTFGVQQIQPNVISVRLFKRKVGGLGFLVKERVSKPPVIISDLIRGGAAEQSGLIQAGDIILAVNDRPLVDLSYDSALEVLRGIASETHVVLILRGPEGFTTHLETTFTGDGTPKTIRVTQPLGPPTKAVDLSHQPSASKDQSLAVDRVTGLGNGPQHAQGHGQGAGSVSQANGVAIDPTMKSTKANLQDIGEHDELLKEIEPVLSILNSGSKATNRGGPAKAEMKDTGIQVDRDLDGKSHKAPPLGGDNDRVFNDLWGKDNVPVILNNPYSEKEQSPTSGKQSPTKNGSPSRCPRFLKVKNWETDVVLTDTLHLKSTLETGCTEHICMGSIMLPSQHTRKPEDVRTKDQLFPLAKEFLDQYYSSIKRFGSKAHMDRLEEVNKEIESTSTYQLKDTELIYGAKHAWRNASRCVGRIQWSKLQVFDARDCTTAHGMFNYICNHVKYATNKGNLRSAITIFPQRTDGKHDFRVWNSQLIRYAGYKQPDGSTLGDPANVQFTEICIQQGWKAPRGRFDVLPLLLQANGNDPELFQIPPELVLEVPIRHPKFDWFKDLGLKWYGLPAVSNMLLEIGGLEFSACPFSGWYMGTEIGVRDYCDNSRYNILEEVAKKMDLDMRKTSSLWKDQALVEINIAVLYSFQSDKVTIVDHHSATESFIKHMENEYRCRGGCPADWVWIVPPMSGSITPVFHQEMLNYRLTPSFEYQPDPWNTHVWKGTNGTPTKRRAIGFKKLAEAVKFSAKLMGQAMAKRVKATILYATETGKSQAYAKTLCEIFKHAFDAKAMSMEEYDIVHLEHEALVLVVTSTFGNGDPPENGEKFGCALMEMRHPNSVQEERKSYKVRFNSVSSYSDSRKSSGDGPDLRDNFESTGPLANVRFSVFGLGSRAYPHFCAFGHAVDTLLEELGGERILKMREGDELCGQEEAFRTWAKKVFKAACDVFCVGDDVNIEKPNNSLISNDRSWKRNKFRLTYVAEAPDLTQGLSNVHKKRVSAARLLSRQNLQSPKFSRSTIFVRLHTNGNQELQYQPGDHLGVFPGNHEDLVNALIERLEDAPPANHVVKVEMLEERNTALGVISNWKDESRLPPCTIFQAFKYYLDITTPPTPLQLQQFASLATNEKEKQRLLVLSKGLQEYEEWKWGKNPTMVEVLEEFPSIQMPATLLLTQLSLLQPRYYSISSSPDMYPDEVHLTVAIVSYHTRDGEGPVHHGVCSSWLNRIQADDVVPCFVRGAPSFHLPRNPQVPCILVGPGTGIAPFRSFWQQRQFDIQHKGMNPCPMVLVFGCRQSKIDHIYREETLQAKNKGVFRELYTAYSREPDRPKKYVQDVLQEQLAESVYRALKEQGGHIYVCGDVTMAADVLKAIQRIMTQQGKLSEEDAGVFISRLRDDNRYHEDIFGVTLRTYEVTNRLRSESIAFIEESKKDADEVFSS
Description for cGMP formation: Primary dissociated cell cultures were prepared from fetal rats (13-to 14-day gestation for cortex and caudate-putamen cultures and 19- to 20-day gestation for hippocampal cultures). […] Dissociated cells were plated at a density of 3-4×10^5 cells per well in polyornithine-coated 15-mm multiwell plates. After 4 days the cells were treated with 10 μg of 5-fluoro-2'-deoxyuridine to prevent proliferations of noneuronal cells. Cells were maintained in MEM/5% horse serum/2 mM glutamine in 8% CO2 /humidified atmosphere at 37° C. The medium was changed twice weekly. Mature neurons (3-4 weeks) were used.
For determination of cGMP the cells were washed three times with CSS. […] After ether extraction, cGMP levels were determined by RIA.
Data are means ±SEM (n=6-8).
Data are means ±SEM (n=8-12).

Consider `N=C(N)NCCCCC(=O)O` [5-GPA, 5-guanidinopentanoic acid], for which, in data set [1], the “inhibition of brain NOS, in words” value is “inactive against the brain NOS”. Further, the “selectivity between brain and macrophage enzyme, in words” value in data set [2] was “good selectivity toward the macrophage enzyme”. Moreover, the “inhibition of macrophage enzyme, in words” value in data set [3] is “potent inhibitors”.
Consider `N=C(N)NCCCC[C@H](N)C(=O)O` [Homoarginine, homoarginine], for which the “affinity for NOS” value with NOS (Knowles et al. (1989)) is given as “less affinity for NOS than L-Arg”. Further, the “reversal of NO2 Arg protection from NMDA cytotoxicity” value (“reversal of NO2 Arg protection” for short) in the data set with cortical cell cultures [4] is given as “reverses effects of NO2 Arg but is less potent than L-Arg”.
In the case of `N=C(N)NCCC[C@@H](N)C(=O)O` [D-Arg, D-arginine], the “reversal of NO2 Arg protection” value in the data set with cortical cell cultures [4] was “much weaker than L-Arg; also recorded: comparable to that obtained with 10 μM L-Arg”.
As to `N=C(N)NCCC[C@H](N)C(=O)O` [L-Arg, L-arginine], the “reversal of NO2 Arg protection” value with cortical cell cultures [4] is reported as “reverses the inhibition by 100 μM NO2 Arg”; in the data set with cortical cell cultures [4] (listed as L-arginine) it was “competitively reversed by L-arginine”; in the data set with cortical cell cultures [4] (listed as L-arginine (L-Arg)), “completely reverses the effect of NO2 Arg”. The “concentration required to obtain maximal NMDA effects” value in the data set on cortical cell cultures [4] (graded L-Arg added to L-Arg-free medium) worked out at 100 µM. Further, in the data set with cortical cell cultures [4] (quisqualate), the “protection against quisqualate-induced cell death” value was “reversal by L-Arg”. For the same compound, the “effect on NMDA stimulation of cGMP formation” value in the data set on cGMP formation is listed as “competitively reversible by L-Arg”.
With `N[C@@H](CCC(=O)O)C(=O)O` [glutamate], the “Cell death, % ± SEM (glutamate)” value in the data set on cortical cell cultures [4] (500 μM glutamate alone) came out at 48.4 ± 4.4%.
In the case of `C=C(C)[C@H]1CN[C@H](C(=O)O)[C@H]1CC(=O)O` [kainate], the cytotoxicity at 100 µM in the data set with cortical cell cultures [4] (Rattus norvegicus, read-out: Cell death, % ± SEM (kainate)) came to 81.4 ± 7.1%. Further, in the data set with cortical cell cultures [5], the “neurotoxic action relative to NMDA” value was “act more slowly and less potently than NMDA”.
As to `CN[C@H](CC(=O)O)C(=O)O` [NMDA, N-methyl-D-aspartate], the CC50 with cortical cell cultures [4] (Rattus norvegicus, 5 min, read-out: toxic LD50) was found to be 280 µM; in the data set on cortical cell cultures [4] (Rattus norvegicus, arginase-treated preparations / L-Arg-free medium, read-out: 50% lethal concentration) it was 7500 µM. Moreover, the cytotoxicity at 300 µM worked out at 60% in the data set on cortical cell cultures [4] (Rattus norvegicus, 5 min, 300 μM, 5 minutes, read-out: cell death at 300 μM NMDA) and 57.8 ± 2.6% in the data set on cortical cell cultures [4] (Rattus norvegicus, 300 μM NMDA + 10 μM glycine alone, read-out: Cell death, % ± SEM (NMDA)). For the same compound, the “increase of the 50% lethal concentration of NMDA” value in the data set with cortical cell cultures [4] (arginase-treated preparations / L-Arg-free medium) was greater than 20 fold.
As to `CNC(=N)NCCC[C@H](N)C(=O)O` [MeArg, L-N^ω -monomethylarginine], the “relative potency as inhibitor of NOS activity” value in data set [1] (cerebellar supernatant preparations, FIG. 1) was “NO2 Arg is a more potent inhibitor of NOS activity than MeArg”. In addition, the Ki on NOS (Dwyer et al. (1991), read-out: Ki, inhibition of NOS activity of purified enzyme preparations) was 2 µM. The “prevention of neurotoxicity, in words” value with cortical cell cultures [4] is “prevent neurotoxicity in proportion to their relative potencies as NOS inhibitors”. In addition, the EC50 was 170 µM in the data set with cortical cell cultures [4] (Rattus norvegicus, NMDA and related excitatory amino acids, read-out: EC50 for preventing neurotoxicity elicited by N-methyl-D-aspartate); 170 µM with cortical cell cultures [4] (Rattus norvegicus, NMDA, read-out: concentration giving 50% prevention of NMDA-induced cell death).
On to “Hb: reduced hemoglobin (Hb), which binds NO”, for which, in the data set on cortical cell cultures [4], the “effect on NMDA-induced cell death” value is “completely prevents NMDA-induced cell death; also recorded: reverses cell death” and the “effect on SNP-induced cell death” value is reported as “completely prevents SNP-induced cell death; also recorded: completely reverses SNP-mediated cytotoxicity”. Also, in the data set on cortical cell cultures [4] (listed as Hemoglobin), the “effect on NMDA-induced cell death” value was “prevents neurotoxic effects of both N-methyl-D-aspartate and sodium nitroprusside”; the “effect on SNP-induced cell death” value was “prevents neurotoxic effects of both N-methyl-D-aspartate and sodium nitroprusside”. The “effect on NMDA stimulation of cGMP formation” value in the data set on cGMP formation is on record as “antagonized”. In the data set on cGMP formation (SNP, 1-minute exposure), the “effect on cGMP levels in cortical cells (SNP)” value was “blocked by Hb; also recorded: completely reverses SNP-mediated cytotoxicity and cGMP formation”.
Take `N=C(N)NCCCCCC(=O)O` [6-GHA, 6-guanidinohexanoic acid]: in data set [1], the “inhibition of brain NOS, in words” value was “inactive against the brain NOS”. Besides, the “selectivity between brain and macrophage enzyme, in words” value in data set [2] is listed as “good selectivity toward the macrophage enzyme”. Further, the “inhibition of macrophage enzyme, in words” value in data set [3] is “potent inhibitors”.
In the case of `N[C@@H](Cn1oc(=O)[nH]c1=O)C(=O)O` [quisqualate], the cytotoxicity at 500 µM in the data set with cortical cell cultures [4] (Rattus norvegicus, 500 μM quisqualate alone, read-out: Cell death, % ± SEM (quisqualate)) was 64.2 ± 3.7%. Further, the “neurotoxic action relative to NMDA” value with cortical cell cultures [5] is “act more slowly and less potently than NMDA”.

(Values after patent US5266594A, “Inhibitors of nitric oxide synthase and use thereof to prevent glutamate neurotoxicity” (priority 1992, dated 1993).)
